Data as given in patent publication US7674813B2, “Heterocyclic sulfonamide inhibitors of beta amyloid production containing an azole” (Wyeth, priority 2004, dated 2010).

Experiments:
[1] = test system: amyloid precursor protein (APP) proteolysis; assay: Repressor Release Assay (RRA); format: cell-based
In short: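 CHO-K1 cells transiently transfected with APP-lacI and pRSVO-luc, then treated in duplicate with compound for 36–48 h at 37° C. Luciferase read as fold increase over Hepes/DMSO diluent; active means ≥1.5-fold at 20 μg/mL and non-toxic, toxicity being <0.75-fold signal.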

beta amyloid protein = settings: in vivo after oral administration; cited from earlier work
beta amyloid 40 = assay: Aβ40/42 ELISA Assay (Aβ40); format: cell-based; settings: Cricetulus griseus; CHO cells carrying the APP-REP-NL plasmid, 22 hours, sandwich ELISA
In short: (§1)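 Test compounds at 2 μM and below are applied for 22 h to CHO cells stably carrying APP-REP-NL. Secreted Aβ40 or Aβ42 in conditioned medium is measured by sandwich ELISA against synthetic peptide standards, using 6E10 capture with C-terminus-specific anti-Aβ40 or anti-Aβ42 detection. Toxicity is checked by MTS read-out; EC50 reported.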

beta amyloid 42 = assay: Aβ40/42 ELISA Assay (Aβ42); format: cell-based; settings: CHO cells carrying the APP-REP-NL plasmid, 22 hours, sandwich ELISA
In short: as §1

SMILES	fold increase in luciferase activity ([1]; at 20 μg/mL)	beta amyloid protein levels in mice brains (beta amyloid protein)	fold induction at 20 µg/mL ([1]; Cricetulus griseus, CHO-K1, all compounds tested at 20 μg/mL, luciferase activity over diluent control, transfected CHO-K1 cells, read-out: RRA data (Fold increase of APPI))	EC50 (beta amyloid 40) [µM]	Effect on Aβ42 production (beta amyloid 42)	melting point [°C]
C[C@H](NC(=O)Cc1cc(F)cc(F)c1)C(=O)N[C@H](C(=O)OC(C)(C)C)c1ccccc1 [DAPT, reference compound]	18.5-28.1 fold increase	reduce beta amyloid protein levels	–	–	–	–
CC(C)C(NS(=O)(=O)c1ccc(Cl)s1)c1cccn1Cc1ccccc1 (stereo not drawn) [Example 31, N-[1-(1-Benzyl-1H-pyrrol-2-yl)-2-methylpropyl]-5-chlorothiophene-2-sulfonamide]	–	–	5.3	26.7	increase	102 to 103
